IC50 data for 8 compounds are collected here from ChEMBL document CHEMBL5325466, “Recent research advances in ATX inhibitors: An overview of primary literature” (Bioorg Med Chem, 2023).

In assay [1] the target is T1, Autotaxin (Homo sapiens, UniProt Q13822). The assay can be described thus: Inhibition of human ATX using LPC as substrate measured after 2 hrs by fluorescence based choline release assay.
Assay [2] concerns the target T1, Autotaxin. The assay can be described thus: Inhibition of recombinant human ATX expressed in Sf9 cells using FS-3 as substrate measured after 1 hrs by fluorescence based assay.
Assay [3] has as its target T1, Autotaxin. The experiment in a line: Inhibition of human ATX using FS-3 as substrate measured after 1 hrs by fluorescence based […] assay.
The target in assay [4] is T1, Autotaxin. The assay can be described thus: Inhibition of ATX (unknown origin) using […] as substrate.
In assay [5] the target is T1, Autotaxin. The assay can be described thus: Inhibition of ATX in human blood. It is filed as tissue-based.
The target in assay [6] is Autotaxin (Mus musculus, UniProt Q9R1E6). The assay can be described thus: Inhibition of ATX in mouse plasma. It is filed as cell-free.
Assay [7] has as its target T1, Autotaxin. The experiment in a line: Inhibition of human ATX using LPC as substrate assessed as choline release measured after 1.5 hrs by fluorescence based assay.
A short description of assay [8]: Inhibition of hen egg white ATX using LPC as substrate preincubated for 30 mins followed by substrate addition measured after 90 mins by choline release assay. Further details: species or system Gallus gallus.
In assay [9] the target is T1, Autotaxin. The assay can be described thus: Inhibition of human ATX using LPC as substrate preincubated for 30 mins followed by substrate addition measured after 90 mins by choline release assay.
For assay [10], the target named is T1, Autotaxin. The experiment in a line: Inhibition of ATX (unknown origin) using FS-3 as substrate.

pIC50: −log10 of the molar value.

The term pIC50 denotes the negative decadic logarithm of the IC50, by convention in mol/L. `O=C(Nc1cccc(F)c1)c1cc(S(=O)(=O)N2CCOCC2)c(Cl)cc1Cl` had a pIC50 in assay [1] of 7.36.

On to `CS(=O)(=O)N(c1cc(C(=O)Nc2cc(F)c(Cl)c(F)c2)c(Cl)cc1Cl)C1CCOCC1`, for which the pIC50 in assay [2] was 6.66.

Consider `O=C(Nc1ccc(Br)cc1)c1cc(S(=O)(=O)N2CCCCC2)c(Cl)cc1Cl`, for which the results for the pIC50 in [1] and in [3] were 7.64 and 7.68, respectively.

With `CCCn1cc(-n2c(C)c(Sc3cccc(C(=O)O)c3F)c3ccc(Cl)c(F)c32)cn1`, the negative logarithm of the IC50 (pIC50) was 8.96 in assay [4], 8.05 in [5] and 7.66 in assay [6].

Take `Cc1c(Sc2cccc(C(=O)O)c2F)c2ccc(Cl)c(F)c2n1C(=O)N1CC2(CC2)c2ccccc21`: the pIC50 in assay [7] is 8.70.

For `N#CC1=C(N)Oc2n[nH]c(-c3ccc(OCc4ccc(F)cc4)cc3)c2[C@H]1c1ccc(Cl)c(Cl)c1`, the pIC50 in assay [8] was 7.06; in [9], 6.87.

Consider `CS(=O)(=O)N(c1cc(C(=O)Nc2cc(F)c(F)c(F)c2)c(Cl)cc1Cl)C1CCOCC1`, for which the pIC50 in assay [2] was 6.66.

`CCc1nc2c(C)cc(-c3ccc(C(=O)N4CCN(CCO)CC4)cc3)cn2c1NC(=O)OCc1ccc2c(c1)OCO2` gave a pIC50 in assay [10] of 8.57.
